Laboratory results from US20190254285A1, “SODIUM PHOSPHITE COMBINATIONS” (priority 2016, published 2019).

Columns and labels:
Type in all cases: in vivo
powdery mildew [1] = assay: Powdery mildew on cucumber leaf disks; conditions: for Surface area (%): phosphite 16 mM, sulfur 0.1 g/L
Procedure: (§1) Leaves were taken from 5 to 6 week old tomato plant. Per treatment 5 ml was sprayed over 5 leaves and dried for 1 hour. Circular disks were punched from the treated leaves with a diameter of 11 mm. 5 disks per treatment were put on water agar in 90 mm ø petri dishes. Water agar was made by sterilizing agar-agar (5 g/L, Carl Roth), benzimidazole (30 mg/L, Sigma-Aldrich) and antibiotic tetracycline hydrochloride (25 mg/L, Carl Roth) in water. Disks were infected by brushing powdery mildew spores from an infected leave until disks were visually covered by spores. After 10 days the surface area covered by powdery mildew was measured by putting pictures of the disks through an online image analyzer. Efficacy was calculated by comparing the treatments against the untreated control. Replicates: 20 disks were used per treatment.
All phosphite concentrations were tested at a concentration of 16 mM of phosphite.
Similar to Example 7 with the following differences: Leaf disk were taken from the dicotyledon leaves when the cucumber was around 2 weeks old. 5 disks per treatment were put on water agar in 90 mm ø petri dishes, with a total of 10 leaf disks per treatment. The formulated sulfur was tested at a concentration of 0.1 g sulfur/L. Assessment was done after 14 and 21 days after infection.

Penicillium discolor = Penicillium discolor rot on wounded apples cv Gala; conditions: for Efficacy (%): rot surface area vs untreated control, phosphite 16 mM, natamycin 100 ppm
Procedure: Tested fruit: apples cv Gala from organic origin/SKAL certified. SKAL is a semi-governmental Dutch organization that controls organic production in the Netherlands. Wounds of the apples were checked at day 3. All phosphite concentrations were tested at a concentration of 16 mM of phosphonate. Natamycin (95%, Freda) solo and in combination was tested at a concentration of 100 ppm. […] Used pathogen: Penicillium discolor spore-suspension containing 4*10E6 spores/ml. Application: The fruit peel of the apple was damaged with a cork borer, ø4 mm and depth ˜0.5 cm into the fruit, with 2 wounds per apple. 40 microliter of a freshly prepared spore suspension of P. discolor was applied by pipette onto each wound. Subsequently, the spore-suspension was allowed to air-dry for 4 hours. Then, 50 microliter of a treatment as presented in the list above was applied by pipette to each wound. All fruits were kept at room temperature (20° C.). Wounds of the apples were checked after 4, 7 and 9 days of incubation. The efficacy is calculated by measuring the surface area (square mm) of the rot on the apples, and compared to the untreated control (see Table 4). Replicates: All treatments for the apple experiment were performed on six individual apples with two wounds each resulting in 12 wounds per treatment.

powdery mildew [2] = assay: Powdery mildew on tomato leaf disks; conditions: for Surface area (%): leaf disk area covered by powdery mildew after 10 days, phosphite 16 mM, sulfur 0.5 g per liter
Procedure: as §1, with “After 10 days the surface area covered by powdery mildew was measured by putting pictures of the disks through an online image analyzer.” left out, “treatment. All phosphite concentrations were tested at a concentration of 16 mM of phosphite. Formulated sulfur was applied at a dose of 0.5 g sulfur per liter. Formulated sulfur consists of the following elements: Sulfur±50% (w/w); Anionic surfactant<3%; Non-ionic surfactant <3%; Water±44%.” for “treatment.”

black sigatoka = assay: Black sigatoka on banana plants, single leaf test, leaf 3 curative, Bravo 72 SC; conditions: for Area infected (%) / Efficacy: 16 DAA, leaf 3 curative, Bravo 72 SC 0.875 liter/ha, phosphites 3 L/ha; for Efficacy: vs untreated control
Procedure: A single leaf test was established in a research station located in the community of “Anita Grande,” county of Jimenez, province of Limon, Costa Rica (latitude 10°15′14.15″N, longitude 83°44′20.29″W).
Every treatment was established in individual plants. Treatments were applied to leaf number 1 to determine their effect as preventive. Leaf position is counted from top to bottom, whereby leaf number 1 is closest to the unfolded leaf. Treatments were distributed systematically to facilitate their location in the field.
Product applications were done in an area of 10×10 cm, with a special equipment designed to simulate aerial applications. Application was done at 35 pound-force per square inch. Since weather conditions were highly conducive for disease development, and inoculum density was very high, no artificial inoculation was done. All treatments were applied to the same position on the leaf to minimize experimental error. All treatments were applied at the equivalent volume of 25 L ha^−1, as it is done commercially. A total of 3 sprays were applied, application A at Day 0, application B at 7 days after application A (DAA), and application C at day 13 DAA. VOLLEY® 88 OL was sprayed at 5.525 L/ha and the different phosphites were applied at the same PO3 concentration of 2 mol/l and were sprayed at 3 liter/ha.
For the evaluation of the efficacy, the diseased area that was affected in the 10×10 cm leaf area was recorded. Evaluations were done 23, 30 and 36 DAA. Efficacy was calculated by comparing the treatments against the untreated control.
Similar to Example 9, with the following differences: Treatments and measurements were applied to leaf number 3, to determine their effect as curative, and one measurement was performed at 8 days after application A (DAA).
Similar to Example 10, with the following differences: Bravo 72 SC (chlorothalonil; Syngenta) was applied at 0.875 liter/ha instead of DITHANE® 60 SC and the phosphites were spayed at a rate of 3 L/ha. One measurement was done at 16 DAA.

N.N.O=[PH](O)O [(NH4)2HPO3]
Surface area (%) (powdery mildew [1]; Day 14 after infection): 7.21%
Surface area (%) (powdery mildew [1]; Day 21 after infection): 5.61%
Efficacy (%) (Penicillium discolor; Day 4): 71%
Efficacy (%) (Penicillium discolor; Day 7): 60%
Efficacy (%) (Penicillium discolor; Day 9): 55%
Surface area (%) (powdery mildew [2]): 66.32%
Area infected (%) (black sigatoka): 51.0%
Efficacy (black sigatoka): 28.2

disodium hydrogen phosphite [Na2HPO3]
Surface area (%) (powdery mildew [1]; Day 14 after infection): 9.15%
Surface area (%) (powdery mildew [1]; Day 21 after infection): 7.38%
Increase of the fungal efficacy of sulfur compared with other phosphite salts (powdery mildew [1]; conclusion from Table 12): increases the fungal efficacy of sulfur the best
Efficacy (%) (Penicillium discolor; Day 4): 88%
Efficacy (%) (Penicillium discolor; Day 7): 74%
Efficacy (%) (Penicillium discolor; Day 9): 64%
Increase of the fungal efficacy of natamycin compared with other phosphite salts (Penicillium discolor; equimolar phosphite concentrations, days 4, 7, 9): increases the fungal efficacy of natamycin the best at all time points
Increase of the fungal efficacy of sulphur compared with other phosphite salts (powdery mildew [2]; conclusion from Table 7): increases the fungal efficacy of sulphur the best
Surface area (%) (powdery mildew [2]): 51.20%
Area infected (%) (black sigatoka): 68.0%
Efficacy (black sigatoka): 4.2
Increase of the fungal efficacy of Bravo 72 SC compared with other phosphite salts (black sigatoka; conclusion from Table 11): increases the fungal efficacy of Bravo 72 SC the best

O=[PH]([O-])[O-].[K+].[K+] [Treatment K2HPO3]
Surface area (%) (powdery mildew [1]; Day 14 after infection): 5.18%
Surface area (%) (powdery mildew [1]; Day 21 after infection): 4.84%
Efficacy (%) (Penicillium discolor; Day 4): 59%
Efficacy (%) (Penicillium discolor; Day 7): 27%
Efficacy (%) (Penicillium discolor; Day 9): 22%
Surface area (%) (powdery mildew [2]): 58.68%
Area infected (%) (black sigatoka): 68.0%
Efficacy (black sigatoka): 4.2
